Measurements: patent publication US20160120848A1, “SPECIFIC CANCER TREATMENT REGIMES WITH GANETESPIB” (SYNTA PHARMACEUTICALS CORP., priority 2013, published 2016)

What was measured:
[1] = system: inflammatory breast cancer; test: Phase 1b study of ganetespib with doxorubicin, cyclophosphamide and docetaxel; format: in vivo, patients; details: combination with doxorubicin
Source text: This is an open-label, multicenter, Phase 1b, dose-escalation study in patients with locally advanced and inflammatory breast cancer. The purpose of the study is to test the safety and tolerability of ganetespib in patients with operable breast cancer.
Eligible patients must be treatment naïve with histologic confirmation of breast adenocarcinoma, and a tumor that is readily accessible for sequential biopsy. Before the study, patients undergo a complete physical examination, laboratory investigations, chest x-ray, a mammogram and a breast ultrasonography and other imaging studies (e.g., MRI, PET-CT, or mammogram) to determine the local extent of the disease. Abdominal CT scan is performed to exclude metastatic disease. The methods used to document baseline status must be consistently used throughout the study. Prior to entering the study, HER2 status of the tumor is determined by the local lab.
A pharmacodynamics phase consists of ganetespib single agent given at a dose of 150 mg/m^2 twice for 1 week prior to start of dose escalation phase (approximately on Days −7 and −4). A pre-dose tumor biopsy is obtained within 15+/−3 days prior to initiating treatment with ganetespib. A post-treatment […] is obtained on Day −4, to evaluate the effects of ganetespib on downstream effectors regulating tumor proliferation and survival, as well as potential effects on HIF1-transcriptional activity. […]

[2] = system: ovarian, fallopian tube or peritoneal cancer; test: Phase I/II study of ganetespib in combination with paclitaxel; format: in vivo; details: combination with weekly paclitaxel 80 mg/m^2
Experimental: A Phase I/II trial of weekly paclitaxel in combination with ganetespib in patients with recurrent, platinum-resistant ovarian, fallopian tube or primary peritoneal cancer is performed. A total of up to 74 patients (up to 18 Phase I patients and up to 56 Phase II patients) with recurrent, platinum-resistant epithelial ovarian, primary peritoneal and fallopian tube carcinoma is enrolled.
Phase I Treatment: Paclitaxel IV given over 1 hour at 80 mg/m^2 days 1, 8 and 15 of a 28-day cycle. Ganetespib IV at a starting dose of 100 mg/m^2 on days 1, 8 and 15 of a 28-day cycle. Ganetespib escalation will follow a modified 3+3 design and escalate from 100 mg/m^2 to 125 mg/m^2 to 150 mg/m^2.
Phase II treatment (after MTD): Phase II TPaclitaxel IV given over 1 hour at 80 mg/m^2 days 1, 8 and 15 of a 28-day cycle. PLUS ganetespib IV at MTD/MED from Phase I on days 1, 8 and 15 of a 28-day cycle.

[3] = system: triple-negative breast cancer; test: Phase 3 study of ganetespib in combination with docetaxel; format: in vivo, patients; details: ganetespib 150 mg/m^2 in combination with docetaxel 75 mg/m^2
Source text: This is an open-label, multicenter, randomized Phase 3 study of patients with triple-negative breast cancer (TNBC). Eligible patients are previously untreated for their advanced or metastatic disease and have measurable disease as defined by Response Evaluation Criteria in Solid Tumors (RECIST). Patients are randomized in a 1:1 ratio to receive either ganetespib in combination with docetaxel or docetaxel alone. The study compares the efficacy and tolerability of ganetespib in combination with docetaxel versus docetaxel alone.
The study enrolls approximately 300 patients over a planned 30-month period, and patients are randomized into one of two treatment arms:
Arm A (combination arm): Ganetespib 150 mg/m^2 in combination with docetaxel 75 mg/m^2. On Day 1 of each 3-week treatment cycle, ganetespib and docetaxel are administered as separate 1-hour intravenous infusions. Administration of ganetespib precedes the administration of docetaxel. There is a 1-hour “rest” period following the end of the ganetespib infusion prior to docetaxel infusion. Ganetespib 150 mg/m^2 is administered again on Day 15 of each cycle […]
Clinical and laboratory parameters are assessed to evaluate disease status and toxicity in all patients. […] The post-dose ECG is recorded within approximately 60 minutes after the end of the ganetespib infusion or as soon as feasible. […]

[4] = system: complex between Hsp90 and mutant p53; test: Preclinical study of Hsp90 inhibition by ganetespib in mutant p53 cells; format: cell-based
[5] = system: cancers with genetic profiles driven by strong Hsp90 clients; test: Earlier clinical results for ganetespib, monotherapy and with taxanes; format: in vivo
Source text: The clinical study aims to achieve this goal by using ganetespib to target what may be a central driver of ovarian cancer aggressiveness and metastatic ability, namely mutant p53.

[6] = combination of ganetespib and taxanes

Q: For `CC(C)c1cc(-c2n[nH]c(=O)n2-c2ccc3c(ccn3C)c2)c(O)cc1O` [ganetespib], which efficacy [1] is on record?
A: The efficacy was “efficacious”.

Q: And the safety profile [1]?
A: Its safety profile is “good safety profile”.

Q: What about the efficacy [2] of the same molecule?
A: Its efficacy is “efficacious”.

Q: And the safety profile [2]?
A: The safety profile was “good safety profile”.

Q: And the efficacy [3]?
A: The efficacy was “efficacious”.

Q: And the safety profile [3]?
A: The safety profile was “good safety profile”.

Q: What about the anti-cancer activity [4] of the same molecule?
A: Its anti-cancer activity is “potent anti-cancer activity”.

Q: And the “anti-cancer activity in cells with mutant p53 compared with other cells” value [4]?
A: The value was “substantially stronger in cells with mutant p53”.

Q: And the “effect on complex between Hsp90 and mutant p53” value [4]?
A: The value was “destroyed the complex between Hsp90 and mutant p53”.

Q: And the “effect on mutant p53 protein” value [4]?
A: The value was “inducing the degradation of mutant p53”.

Q: What about the “sensitization of mutant p53 cancer cells to treatment with chemotherapies” value ([4]; inhibition of Hsp90) of the same molecule?
A: Its value is “strongly sensitize”.

Q: And the activity [5, 6]?
A: The activity was “favorable”.

Q: And the safety profile [5, 6]?
A: The safety profile was “favorable”.

Q: And the tumor responses ([5]; ganetespib monotherapy, cancers with genetic profiles driven by strong Hsp90 clients)?
A: Its tumor responses is “durable objective tumor responses”.
